Reference: patent US4497803A, “Inclusion compound of lankacidin-group antibiotic and use thereof” (priority 1982, dated 1985)
In brackets after ≈: the same amount, converted by molar mass. Read-outs that look alike come from different tables or passages of the source. Blank lines part the entries; values can stand above or below the molecule they belong to.

Assays:
[1] = Solubility of lankacidin-group in β-CD solution (10^-2 Mol/l), shaken 30 minutes to one hour (Example 4); assay type: physicochemical
Experimental: (§1) Powdery lankacidin C was added to an aqueous solution of cyclodextrin (hereinafter referred to as "CD") to have 4 mg/ml of the lankacidin C contained. After the mixture was stirred with a mixer, it was shaken at 5° C. for 2 hours, and passed through filter paper. The absorbancy of the filtrate was measured at 227-229 nm to determine concentration of the lankacidin C.
The solubility of lankacidin-group in a solution of β-CD (10^-2 Mol/l) were measured in the same manner as that of Example 1 except that the shaking was continued for 30 minutes to one hour.

[2] = tested on: St. aureus 209P; test: Stability of inclusion compound of lankacidin-group (24° C., for 6 days): antibacterial activity by paper disk assay; assay type: cell-based; details: methanol, 1000 μg/ml
Experimental: The inclusion compound of the present invention is stable in an aqueous solution, although it splits into lankacidin-group moiety and cyclodextrins moiety, when it is in the form of solution or powder, by contacting it with organic solvents (e.g., ethyl acetate, methyl isobutyl ketone) or various carriers (e.g., silica gel, high-porous resins). […] In comparing the antibacterial activity, concentrations of the inclusion compound are calculated in terms of lankacidin-group compound from which the inclusion compound is prepared.
Stability of inclusion compound of lankacidin-group
*1 Paper disk assay using Trypticase soy agar (Baltimore Biologicals Ltd.
U.S.A.) as test culture media.
*2 1000 μg/ml, Lankacidingroup is stable in methanol.
*3 Aqueous solution of the inclusion compound with cyclodextrin (1000
μg/ml calculated in terms of lankacidingroup)

[3] = Solubility of inclusion compound in water; assay type: physicochemical
Experimental: The lankacidin-group is added to each of solutions containing various amounts of cyclodextrin. The minimum concentration of cyclodextrin which dissolves the maximum amount of the lankacidin-group compound and practical concentrations thereof are determined on the basis of amounts of the lankacidin-group compound dissolved in the cyclodextrin solutions. Then, the molar ratio of cyclodextrin to lankacidin-group compound is calculated by the following equation:
Molar ratio=[Molarity of cyclodextrin]:[(Saturation molarity of lankacidin-group compound in a certain concentration of cyclodextrin-solution)-(saturation molarity of lankacidin-group compound in an aqueous solution)].
Moreover, a large amount of the present inclusion compound is dissolved in water and it is kept stably therein. Solubility of the inclusion compound in water is greater than that of landacidin-group compounds in water, when the amount of the inclusion compound dissolved is calculated in terms of lankacidin-group compound, and than saturation concentration of cyclodextrin in water so far as cyclodextrin contained in the inclusion compound is concerned (Table 2).
(1) Solubility of lankacidingroup in water.
(2) Solubility of lankacidingroup in M/100 cyclodextrin solution.
(3) Concentration of cyclodextrin of (2).
(4) Solubility (maximum) of the present inclusion compound (calculated in
terms of lankacidingroup contained) in water.
(5) Concentration of cyclodextrin contained in the inclusion compound of […]

[4] = Solubility in β-CD solution, shaken 16 hours (Example 3); assay type: physicochemical
Experimental: as §1
The solubilities of lankacidin A, lankacidin C and lankacidinol in a β-CD solution were measured in the same manner as that of Example 1 except that the shaking was continued for 16 hours.

[5] = aqueous β-cyclodextrin solution
[6] = aqueous β-cyclodextrin solution, β-CD 10^-2 Mol/l, read-out: Solubility
[7] = β-CD 0 Mol/l (water), read-out: Solubility

ratio: Solubility in a 10^-2 Mol/l solution of CD/solubility in water [1]: 9.0
solubility [1, 5]: 332 µg/mL (≈ 565 µM)
solubility ([1]; water): 36.9 µg/mL (≈ 62.8 µM)
Molecule: CC(=O)OC1C=CC(C)=CC(NC(=O)C(C)OC(C)=O)C2(C)C(=O)OC(CC(OC(C)=O)C=CC(C)=CC1)C(C)C2=O (stereo not drawn) [Lankacidinol 2',8,14-triacetate]

Molecule: CC(=O)OC1C=CC(C)=CC(NC(=O)C(C)O)C2(C)C(=O)OC(CC(OC(C)=O)C=CC(C)=CC1)C(C)C2=O (stereo not drawn) [Lankacidinol 8,14-diacetate]
solubility [1, 6]: 1780 µg/mL (≈ 3260 µM)
solubility [1, 7]: 440 µg/mL (≈ 806 µM)
ratio: Solubility in a 10^-2 Mol/l solution of CD/solubility in water ([1]; β-CD 10^-2 Mol/l vs water): 4.05

Molecule: CC(=O)OC1C=CC(C)=CCC(O)C=CC(C)=CC(NC(=O)C(C)O)C2(C)C(=O)OC(C1)C(C)C2=O (stereo not drawn) [Lankacidinol A, lankacidinol A]
solubility [1, 6]: 3070 µg/mL (≈ 6100 µM)
solubility [1, 7]: 170 µg/mL (≈ 338 µM)
ratio: Solubility in a 10^-2 Mol/l solution of CD/solubility in water ([1]; β-CD 10^-2 Mol/l vs water): 18.1

Molecule: CC1=CCC(O)C=CC(C)=CC(NC(=O)C(C)O)C2(C)C(=O)OC(CC(O)C=C1)C(C)C2=O (stereo not drawn) [Lankacidinol, lankacidinol]
Antibacterial activity, inhibition diameter ([2]; 0 day): 25.75 mm
Antibacterial activity, inhibition diameter ([2]; 3 days at 24° C.): 27.0 mm
Antibacterial activity, inhibition diameter ([2]; 6 days at 24° C.): 30.0 mm
solubility ([3]; m/100 cyclodextrin solution, M/100 cyclodextrin, (3) cyclodextrin 11.3 mg/ml, read-out: (2) Solubility of lankacidin-group in M/100 cyclodextrin solution): 3780 µg/mL (≈ 8190 µM)
solubility ([3]; water, read-out: (1) Solubility of lankacidin-group in water): 655 µg/mL (≈ 1420 µM)
solubility at 16 h ([4]; aqueous β-cd solution, β-CD 2 × 10^-3 Mol/l): 1360 µg/mL (≈ 2950 µM)
solubility at 16 h ([4]; aqueous β-cd solution, β-CD 5 × 10^-3 Mol/l): 2130 µg/mL (≈ 4610 µM)
solubility at 16 h ([4]; aqueous β-cd solution, β-CD 10^-2 Mol/l): 2750 µg/mL (≈ 5960 µM)
solubility at 16 h ([4]; aqueous β-cd solution, β-CD 10^-3 Mol/l): 914 µg/mL (≈ 1980 µM)
Solubility in β-CD solution as function of β-CD concentration ([4]; from the vicinity of 10^-3 Mol/l of β-CD): increase in proportion to the concentration of β-CD
solubility at 16 h ([4]; water, β-CD 0 Mol/l): 444 µg/mL (≈ 962 µM)

ratio: Solubility in a 10^-2 Mol/l solution of CD/solubility in water [1]: 4.38
solubility [1, 5]: 3610 µg/mL (≈ 8650 µM)
solubility ([1]; water): 824 µg/mL (≈ 1970 µM)
Molecule: CC1=CCC(O)C=CC(C)=CC(NC(=O)C(C)O)C(C)C(=O)C(C)=CCC(O)C=C1 (stereo not drawn) [Lankacyclinol, lankacyclinol]

Concentration of cyclodextrin in its saturated aqueous solution ([3]; water): 1000 µg/mL
Molecule: OC[C@H]1O[C@@H]2O[C@H]3[C@H](O)[C@@H](O)[C@@H](O[C@H]4[C@H](O)[C@@H](O)[C@@H](O[C@H]5[C@H](O)[C@@H](O)[C@@H](O[C@H]6[C@H](O)[C@@H](O)[C@@H](O[C@H]7[C@H](O)[C@@H](O)[C@@H](O[C@H]8[C@H](O)[C@@H](O)[C@@H](O[C@H]1[C@H](O)[C@H]2O)O[C@@H]8CO)O[C@@H]7CO)O[C@@H]6CO)O[C@@H]5CO)O[C@@H]4CO)O[C@@H]3CO [cyclodextrin, β-cyclodextrin]

Molecule: Iso-lankacidinol
solubility ([1]; β-CD 0 Mol/l (water)): 796 µg/mL
solubility ([1]; β-CD 10^-2 Mol/l): 3200 µg/mL
ratio: Solubility in a 10^-2 Mol/l solution of CD/solubility in water ([1]; β-CD 10^-2 Mol/l vs water): 4.02
